Results on 3 compounds are retold here after patent US11584746B2, “Inhibitors of EGFR and methods of use thereof” (DANA-FARBER CANCER INSTITUTE, INC., priority 2018, dated 2023).

Assay [1] concerns patients with NSCLC resistant to gefitinib or erlotinib. The settings on record: cited from earlier work.
In assay [2] the test system is EGFR T790M/L858R Ba/F3 cell line. As to the kind of experiment: Ba/F3 cell proliferation (MTS assay), EGFR T790M/L858R. The conditions noted are these: for inhibition at 1 µM: compound at 1 μM, EGFR T790M/L858R Ba/F3, read-out: Inhibition of proliferation, Activity (% DMSO control). The assay is classed as cell-based, murine. As to the method: The selectivity between wild-type EGFR and EGFR containing one or more mutations as described herein can also be measured using cellular proliferation assays where cell proliferation is dependent on kinase activity. […] Proliferation assays are performed at a range of inhibitor concentrations (e.g., 10 μM, 3 μM, 1.1 μM, 330 nM, 110 nM, 33 nM, I1 nM, 3 nM, 1 nM) and an EC50 is calculated.
All cell lines were maintained in RPMI 1640 (Cellgro; Mediatech Inc., Herndon, Calif.) supplemented with 10% FBS 100 units/mL penicillin, 100 units/mL streptomycin, and 2 mM glutamine. […] The EGFR I941R mutation was introduced via site directed mutagenesis using the Quick Change Site-Directed Mutagenesis kit (Stratagene; La Jolla, Calif.) according to the manufacturer's instructions. All constructs were confirmed by DNA sequencing. The constructs were shuttled into the retroviral vector JP1540 using the BD Creator™ System (BD Biosciences). Ba/F3 cells were infected with retrovirus and according to standard protocols, as described previously (Zhou 2009). Stable clones were obtained by selection in puromycin (2 μg/ml).
Growth and inhibition of growth was assessed by MTS assay and was performed according to previously established methods (Zhou 2009). The MTS assay is a colorimetric method for determining the number of viable cells that is based on the bioreduction of MTS by cells to a formazan product that is soluble in cell culture medium and can be detected spectrophotometrically. […] All experimental points were set up in six wells and all experiments were repeated at least three times. […] The curves were fitted using a non-linear regression model with a sigmoidal dose response.

Assay [3] deals with EGFR L858R/T790M/C797S Ba/F3 cell line. As to the kind of experiment: Ba/F3 cell proliferation (MTS assay), EGFR L858R/T790M/C797S. The class given is cell-based, murine. The settings on record: Mus musculus, BaF3, compound at 1 μM, read-out: Inhibition of proliferation, Activity (% DMSO control). The source says:
The selectivity between wild-type EGFR and EGFR containing one or more mutations as described herein can also be measured using cellular proliferation assays where cell proliferation is dependent on kinase activity. For example, murine Ba/F3 cells transfected with a suitable version of wild-type EGFR (such as VIII; containing a WT EGFR kinase domain), or Ba/F3 cells transfected with L858R/T790M, Del/T790M/L718Q, L858R/T790M/L718Q, L858R/T790M/C797S, Del/T790M/C797S, L858R/T790M/I941R, or Exon 19 deletion/T790M can be used. Proliferation assays are performed at a range of inhibitor concentrations (e.g., 10 μM, 3 μM, 1.1 μM, 330 nM, 110 nM, 33 nM, I1 nM, 3 nM, 1 nM) and an EC50 is calculated.
The EGFR mutant L858R, Del E746_A750, L858R/T790M, DelE746_A750/T790M, L858R/T790M/C797S and Del/T790M/C797S Ba/F3 cells were previously described (Zhou et al., Nature 462, (2009), 1070-1074). All cell lines were maintained in RPMI 1640 (Cellgro; Mediatech Inc., Herndon, Calif.) supplemented with 10% FBS 100 units/mL penicillin, 100 units/mL streptomycin, and 2 mM glutamine. L858R cells were maintained in ACL-4 media (Invitrogen, Carlsbad, Calif.) supplemented with 5% FBS, 100 units/mL penicillin, 100 units/mL streptomycin, and 2 mM glutamine. The EGFR I941R mutation was introduced via site directed mutagenesis using the Quick Change Site-Directed Mutagenesis kit (Stratagene; La Jolla, Calif.) according to the manufacturer's instructions. All constructs were confirmed by DNA sequencing. The constructs were shuttled into the retroviral vector JP1540 using the BD Creator™ System (BD Biosciences). Ba/F3 cells were infected with retrovirus and according to standard protocols, as described previously (Zhou 2009). Stable clones were obtained by selection in puromycin (2 μg/ml).
Growth and inhibition of growth was assessed by MTS assay and was performed according to previously established methods (Zhou 2009). The MTS assay is a colorimetric method for determining the number of viable cells that is based on the bioreduction of MTS by cells to a formazan product that is soluble in cell culture medium and can be detected spectrophotometrically. Ba/F3 cells of different EGFR genotypes were exposed to treatment and the number of cells used per experiment determined empirically and has been previously established (Zhou 2009). All experimental points were set up in six wells and all experiments were repeated at least three times. […] The curves were fitted using a non-linear regression model with a sigmoidal dose response.

The target of assay [4] is recombinant EGFR T790M/L858R kinase (Homo sapiens (Human), UniProt P00533, L858R/T790M). The experiment in a line: HTRF-based EGFR biochemical assay. As to the method:
EGFR biochemical assays are carried out using a homogeneous time-resolved fluorescence (HTRF) assay. The reaction mixtures contain biotin-Lck-peptide substrate, wild type, or mutant EGFR enzyme in reaction buffer. Enzyme concentrations are adjusted to accommodate varying kinase activity and ATP concentrations. Compounds of the present application are diluted into the assay mixture and IC50 values are determined using 12-point inhibition curves.
EGFR kinase proteins were purified by glutathione-affinity chromatography followed by size-exclusion chromatography after cleavage with TEV or thrombin to remove the GST fusion partner following established procedures. (Yun 2008; Yun 2007).
EGFR biochemical assays were carried out using a homogeneous time-resolved fluorescence (HTRF) assay as described previously. The reaction mixtures contained 1 μM biotin-Lck-peptide substrate, wild type or mutant EGFR enzyme in reaction buffer (50 mM HEPES pH 7.1, 10 mM MgCl2, 0.01% BSA. 1 mM TCEP and 0.1 mM Na3VO4) at a final volume of 10 μL. […] All reactions were carried out at room temperature in white ProxiPlate™ 384-well Plus plates (PerkinElmer) and were quenched with 5 μL of 0.2 M EDTA at 60 min. Five μL per well of the detection reagent containing 2.5 ng PT66K (Cis-bio) and 0.05 μg SAXL (Prozyme) were added, and the plates were then incubated at room temperature for 1 hour and read with an EnVision plate reader.
In general terms: In TR-FRET formats the signal depends on donor and acceptor labels being close together.

[5] abbreviates: Mus musculus, BaF3, read-out: Ba/F3 cellular activity (EC50) T790M/L858R.
The mark [6] stands for this setting: read-out: Ba/F3 cellular activity (EC50) T790M/L858R + Cetuximab (1 μg/mL), presence of 1 μg/mL cetuximab.

Where two headings read alike, the source gives them in different places.

recombinant EGFR T790M/L858R kinase, sequence (P00533 696-1022 T790M/L858R): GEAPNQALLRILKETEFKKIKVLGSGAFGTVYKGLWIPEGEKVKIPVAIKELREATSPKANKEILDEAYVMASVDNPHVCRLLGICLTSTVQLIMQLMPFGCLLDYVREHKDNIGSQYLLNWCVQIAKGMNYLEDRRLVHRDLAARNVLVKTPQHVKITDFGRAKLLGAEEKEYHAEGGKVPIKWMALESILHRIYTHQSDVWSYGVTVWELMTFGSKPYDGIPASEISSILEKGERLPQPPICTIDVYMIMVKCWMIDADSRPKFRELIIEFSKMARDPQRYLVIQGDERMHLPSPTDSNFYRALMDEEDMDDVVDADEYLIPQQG

As to `CN(C)C/C=C/C(=O)Nc1cc2c(Nc3ccc(F)c(Cl)c3)ncnc2cc1O[C@H]1CCOC1` [Afatinib], the RR in assay [1] is reported as less than 10%.
A word on the IC50: it is the midpoint of a concentration-inhibition curve. For `O=C1c2cc(-c3ccc(N4CCNCC4)cc3)ccc2Nc2ccc(F)cc2N1Cc1nccs1` [Compound I-7], the inhibition at 1 µM is not below 75% in assay [2] (Mus musculus, BaF3) and not below 75% in assay [3]. The EC50 in assay [2] (setting [5]) and in assay [2] (setting [6]) was not below 0.75 µM in each case. For the same compound, the IC50 in assay [4] is less than 0.25 µM.
`CN1CCC(n2cc(-c3ccc4c(c3)C(=O)N(Cc3ccccc3)c3cc(F)ccc3N4)cn2)CC1` [Compound I-3]: the inhibition at 1 µM is not below 75% in assay [2] (Mus musculus, BaF3) and not below 75% in assay [3]. For the same compound, the values for the EC50 in assay [2] (setting [5]) and in assay [2] (setting [6]) were not below 0.75 µM and less than 0.25 µM, respectively. In addition, the IC50 in assay [4] was less than 0.25 µM.
